Test results reported in patent US11414384B2, “P300/CBP hat inhibitors” (Constellation Pharmaceuticals, Inc., priority 2018, dated 2022).

Assays:
[1] = molecular target: p300 HAT domain (residues 1287-1666) (Homo sapiens (Human), UniProt Q09472); assay: p300 HAT SPA assay (scintillation proximity assay, acetylation of biotinylated H3(1-21) peptide); format: biochemical; details: p300 HAT domain; average of at least 2 replicate titrations; read-out: P300 HAT SPA IC50
Summary of the method: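 Purified p300 HAT domain reaction transferred to streptavidin plates to capture biotinylated H3(1-21) peptide, incubated 1.5 hr at RT, and read by scintillation proximity. IC50 values derived from concentration-response data.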

[2] = tested on: acetylation of chromatin at H3K18 (catalyzed by p300 and CBP) in HCT-116 cells; assay: H3K18Ac MSD cellular assay; format: cell-based; details: 2 hr treatment, average of at least 2 replicate titrations
Protocol: Select compounds were also evaluated in a H3K18Ac MSD cellular assay that measures the ability of compounds to inhibit the acetylation of chromatin at H3K18, a process catalyzed by p300 and CBP. In a typical experiment the p300 HAT inhibitory activity inside cells of the compounds described herein was determined in accordance with the following experimental method. 20 k HCT-116 cells per well are plated in 75 μL RPMI+10% FBS media the night before treatment. Compounds plated in DMSO at 4× final concentration are resuspended in 30 μL RPMI+10% FBS, then 25 μL is combined with corresponding wells containing cells. Treated cells are incubated for 2 hr at 37° C., then lysed in 500 μL final volume and frozen at −80° C. MSD plates (Meso Scale Discovery) are coated overnight at 4° C. with 60 μL 1:500α-total histone antibody (Millipore MAB3422) in PBS. Plates are then blocked with 5% BSA in TBST shaking at RT for 1 hr, washed, and 30 μL lysate added to each well for 2 hr shaking at RT. Plates are washed and 25 μL 1:216α-H3K18ac antibody (CST 9675) in PBS added, then incubated for 1 hr shaking at RT. Plates are washed again, then 25 μL 1:1000 Sulfo-Tag goat a-rabbit antibody (Meso Scale Discovery R32Ab-1) in PBS is added for 1 hr shaking at RT. Plates are washed once more, then 150 μL 1× Read Buffer (MSD #R92TD-3) is added to all wells and read on MSD SECTOR Imager 2400 using the conventional read setup.

p300 HAT domain (residues 1287-1666), sequence (Q09472 1287-1666): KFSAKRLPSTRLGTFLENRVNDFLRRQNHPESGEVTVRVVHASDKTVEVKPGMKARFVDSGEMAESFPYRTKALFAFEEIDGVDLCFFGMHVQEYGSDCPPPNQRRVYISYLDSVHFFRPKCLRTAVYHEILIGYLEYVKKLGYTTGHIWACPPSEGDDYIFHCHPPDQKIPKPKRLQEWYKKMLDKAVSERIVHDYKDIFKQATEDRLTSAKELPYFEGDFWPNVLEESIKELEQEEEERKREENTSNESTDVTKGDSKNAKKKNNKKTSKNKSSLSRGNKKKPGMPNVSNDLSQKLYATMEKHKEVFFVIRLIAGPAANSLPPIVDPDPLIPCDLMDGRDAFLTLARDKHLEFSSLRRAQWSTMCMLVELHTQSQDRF

| Structure (SMILES) | IC50 [1] | EC50 ([2]; Homo sapiens, HCT-116, 2 h) | EC50 [2] |
| --- | --- | --- | --- |
| N#Cc1ccc(CCNC(C(=O)c2c[nH]c3cc(-c4cn[nH]c4)ccc23)c2ccccc2)cc1 (single isomer, unassigned) [98 Isomer 2] | 58.3 nM | 18.6 nM |  |
| CNC(=O)CCc1ccc2c(C(=O)C(NCCc3ccc(F)cc3)c3ccccc3)c[nH]c2c1 (single isomer, unassigned) [158 Isomer 1] | 1500 nM | 641 nM |  |
| Cc1cnc(-c2ccc3c(C(=O)C(NCCc4ccc(Cl)cc4)c4ccccc4)c[nH]c3c2)[nH]1 (single isomer, unassigned) [109 Isomer 2] | 195 nM | 267 nM |  |
| CCNc1ccc(CCNC(C(=O)c2c[nH]c3ccccc23)c2ccccc2)cn1 (single isomer, unassigned) [53 Isomer 2] | 4290 nM | 3470 nM |  |
| CNC(=O)c1ccc(CCN[C@H](C(=O)c2c[nH]c3cc(-c4cnn(C)c4)ccc23)c2ccccc2)cc1 (single isomer, unassigned) [131 Isomer 2] | 1290 nM | 101 nM |  |
| N#Cc1ccc(CCNC(C(=O)c2c[nH]c3cc(-c4cnn(CCO)c4)ccc23)c2ccccc2)cc1 (single isomer, unassigned) [95 Isomer 2] | 46 nM | 61.2 nM |  |
| Cc1cccc2c(C(=O)C(NC(C)Cc3ccc(Cl)cc3Cl)c3ccccc3)c[nH]c12 (single isomer, unassigned) [68 Isomer 1] | 728 nM | 666 nM |  |
| O=C(c1c[nH]c2cc(-c3cccnc3)ccc12)C(NCCc1ccc(Cl)cc1)c1ccccc1 (single isomer, unassigned) [90 Isomer 2] | 591 nM | 80 nM |  |
| CN1CCN(c2ccc3c(C(=O)C(NCCc4ccc(C#N)cc4)c4ccccc4)c[nH]c3n2)CC1 (single isomer, unassigned) [121 Isomer 2] | 82 nM | 122 nM |  |
| CCNC(=O)c1ccc2c(C(=O)[C@@H](NCCc3ccc(C#N)cc3)c3ccccc3)c[nH]c2c1 (single isomer, unassigned) [146 Isomer 1] | 786 nM |  | 401 nM |
| N#Cc1ccc(CCNC(C(=O)c2c[nH]c3ccccc23)c2ccccc2)cc1 (single isomer, unassigned) [58 Isomer 2] | 201 nM | 477 nM |  |
| COc1cccc2c(C(=O)[C@@H](NCCc3ccc(S(N)(=O)=O)cc3)c3ccccc3)c[nH]c12 (single isomer, unassigned) [144 Isomer 2] | 1410 nM | 1380 nM |  |
| COCCn1cc(-c2ccc3c(C(=O)C(NCCc4ccc(C#N)cc4)c4ccccc4)c[nH]c3c2)cn1 (single isomer, unassigned) [96 Isomer 2] | 62 nM | 26.4 nM |  |
| Cc1ccc(CCNC(C(=O)c2c[nH]c3ccccc23)c2ccccc2)cc1 (single isomer, unassigned) [38 Isomer 2] | 698 nM | 1690 nM |  |
| CC(Cc1ccc(Cl)cc1)NC(C(=O)c1c[nH]c2ccccc12)c1ccccc1 (single isomer, unassigned) [27 Isomer 1] | 636 nM | 681 nM |  |
| CC(C)(O)CNC(=O)c1ccc2c(C(=O)C(NCCc3ccc(C#N)cc3)c3ccccc3)c[nH]c2c1 (single isomer, unassigned) [161 Isomer 2] | 95.1 nM | 78.1 nM |  |
| Cn1cc(-c2ccc3c(C(=O)C(NCCc4ccc(C(N)=O)cc4)c4ccccc4)c[nH]c3c2)nn1 (single isomer, unassigned) [180 Isomer 2] | 370 nM | 219 nM |  |
| Cn1cc(-c2ccc3c(C(=O)C(NCCc4ccc(C#N)cc4)c4ccccc4)c[nH]c3c2F)cn1 (single isomer, unassigned) [103 Isomer 2] | 118 nM | 68.5 nM |  |
| Cc1ccc2c(C(=O)C(NCCc3ccc(F)cc3)c3ccccc3)c[nH]c2c1 (single isomer, unassigned) [48 Isomer 2] | 3340 nM | 3200 nM |  |
| Cn1cc(-c2ccc3c(C(=O)C(NCCc4ccc(F)cc4F)c4ccccc4)c[nH]c3c2)cn1 (single isomer, unassigned) [85 Isomer 2] | 826 nM | 92.6 nM |  |
| CS(=O)(=O)CCCNC(=O)c1ccc2c(C(=O)C(NCCc3ccc(C#N)cc3)c3ccccc3)c[nH]c2c1 (single isomer, unassigned) [175 Isomer 2] | 44 nM | 184 nM |  |
| Cc1ccc(-c2ccc3c(C(=O)C(NCCc4ccc(Cl)cc4)c4ccccc4)c[nH]c3c2)cn1 (single isomer, unassigned) [88 Isomer 2] | 603 nM | 379 nM |  |
| CC(Cc1ccc(Cl)cc1Cl)NC(C(=O)c1c[nH]c2cc(-c3cnn(C)c3)ccc12)c1ccccc1 (single isomer, unassigned) [97 Isomer 2] | 6260 nM |  | 780 nM |
| Cn1cc(-c2ccc3c(C(=O)C(NCCc4ccc(C(=O)O)cc4Cl)c4ccccc4)c[nH]c3c2)cn1 (single isomer, unassigned) [142 Isomer 2] | 81.6 nM | 1200 nM |  |
| Cn1cc(-c2ccc3c(C(=O)C(NCCc4ccc(S(N)(=O)=O)cc4)c4ccccc4)cnn3c2)cn1 (single isomer, unassigned) [101 Isomer 2] | 59.2 nM | 47.1 nM |  |
| O=C(c1c[nH]c2cc(-c3ccccn3)ccc12)C(NCCc1ccc(Cl)cc1)c1ccccc1 (single isomer, unassigned) [108 Isomer 1] | 1600 nM | 928 nM |  |

The remaining lines, values ahead:

| IC50 [1] | EC50 ([2]; Homo sapiens, HCT-116, 2 h) | EC50 [2] | Structure (SMILES) |
| --- | --- | --- | --- |
| 66 nM | 36.4 nM |  | N#Cc1ccc(CCNC(C(=O)c2c[nH]c3cc(C(=O)NCC(F)(F)F)ccc23)c2ccccc2)cc1 (single isomer, unassigned) [157 Isomer 2] |
| 3790 nM |  | 6110 nM | CC(CNC(C(=O)c1c[nH]c2ccccc12)c1ccccc1)c1ccc(Cl)cc1 (single isomer, unassigned) [26 Isomer 3] |
| 28 nM | 34.2 nM |  | Cn1cnc(-c2ccc3c(C(=O)C(NCCc4ccc(C#N)cc4)c4ccccc4)c[nH]c3c2)c1 (single isomer, unassigned) [113 Isomer 2] |
| 580 nM | 232 nM |  | NS(=O)(=O)c1ccc(CCNC(C(=O)c2c[nH]c3cc(-n4ccnc4)ccc23)c2ccccc2)cc1 (single isomer, unassigned) [119 Isomer 2] |
| 164 nM | 109 nM |  | CC(Cc1ccc(Cl)cc1)NC(C(=O)c1c[nH]c2cc(-c3cnn(C)c3)ccc12)c1ccccc1 (single isomer, unassigned) [92 Isomer 3] |
| 332 nM | 116 nM |  | CCn1cc(-c2ccc3c(C(=O)C(NCCc4ccc(Cl)cc4)c4ccccc4)c[nH]c3c2)cn1 (single isomer, unassigned) [86 Isomer 2] |
| 101 nM | 53.5 nM |  | CNC(=O)c1ccc2c(C(=O)C(NCCc3ccc(Cl)cc3Cl)c3ccccc3)c[nH]c2c1 (single isomer, unassigned) [151 Isomer 2] |
| 511 nM | 53.4 nM |  | Cn1cc(-c2ccc3c(C(=O)C(NCCc4ccc(C(N)=O)cc4)c4ccccc4)c[nH]c3c2)cn1 (single isomer, unassigned) [139 Isomer 2] |
| 413 nM | 148 nM |  | Cn1cc(-c2ccc3c(C(=O)C(NCCc4ccc(S(N)(=O)=O)cc4)c4ccccc4)c[nH]c3c2)nn1 (single isomer, unassigned) [116 Isomer 2] |
| > 30000 nM |  | 1610 nM | O=C(c1c[nH]c2cc(-c3ccncc3)ccc12)C(NCCc1ccc(F)cc1)c1ccccc1 (single isomer, unassigned) [82 Isomer 1] |
| 281 nM | 43.3 nM |  | Cn1cc(-c2ccc3c(C(=O)C(NCCc4ccc(S(N)(=O)=O)cc4)c4ccccc4)c[nH]c3c2)cn1 (single isomer, unassigned) [66 Isomer 2] |
| 247 nM | 74.7 nM |  | Cn1cc(-c2ccc3c(C(=O)C(NCCc4ccc(Cl)cc4)c4ccccc4)c[nH]c3c2)cn1 (single isomer, unassigned) [83 Isomer 2] |
| 1310 nM | 4010 nM |  | O=C(c1c[nH]c2ccccc12)C(NCCc1ccc(OC(F)(F)F)cc1)c1ccccc1 (single isomer, unassigned) [40 Isomer 2] |
| 136 nM | 42.6 nM |  | O=C(c1c[nH]c2cc(-c3cccnn3)ccc12)C(NCCc1ccc(Cl)cc1)c1ccccc1 (single isomer, unassigned) [112 Isomer 2] |
| 172 nM |  | 73.1 nM | N#Cc1ccc(CCNC(C(=O)c2c[nH]c3cc(-n4ccnc4)ccc23)c2ccccc2)cc1 (single isomer, unassigned) [120 Isomer 2] |
| > 30000 nM |  | > 10000 nM | CC(CNC(C(=O)c1c[nH]c2ccccc12)c1ccccc1)c1ccc(Cl)cc1 (single isomer, unassigned) [26 Isomer 1] |
| 28.8 nM | 112 nM |  | N#Cc1ccc(CCNC(C(=O)c2c[nH]c3cc(C(=O)NC4CS(=O)(=O)C4)ccc23)c2ccccc2)cc1 (single isomer, unassigned) [166 Isomer 2] |
